The numbers were not newly measured in patent US20220386610A1, “FUNGICIDAL COMBINATIONS” (UPL Corporation Limited, priority 2019, published 2022), which cites them from elsewhere.

The series deals with soybean rust. The conditions noted are these: for control: 2012/13 season.

For `CC(C1CC1)C(O)(Cn1cncn1)c1ccc(Cl)cc1` (stereo not shown) [cyproconazole], the control is given as 38%.
For the compound `CC(C)(C)C(O)(CCc1ccc(Cl)cc1)Cn1cncn1` (stereo not shown) [tebuconazole], the control was 42%. For the same compound, the “efficiency (reduced level)” value (after ten seasons) is 24%. Also, where the note is “before the reduction over ten seasons”, the “efficiency (starting level)” value is 90%.
